ChEMBL document CHEMBL5226291, “The race to treat COVID-19: Potential therapeutic agents for the prevention and treatment of SARS-CoV-2” (Eur J Med Chem, 2021)
Values after ≈ are worked out from the molar mass of the structure shown. Square brackets hold non-standard residues; d marks the D form. Peptide text beside a SMILES is read from it. * marks the point of attachment. ξ: configuration not given here. Decanoyl = CCCCCCCCCC(=O)*; ξF = NC(Cc1ccccc1)C(=O)O; Cbz = O=C(OCc1ccccc1)*; CH2Cl = ClC*

Tests used:
[1] = Cytotoxicity against African green monkey Vero E6 cells by MTT assay; type: toxicity, cell-based, Vero C1008; details: chlorocebus sabaeus
[2] = tested on: Middle East respiratory syndrome-related coronavirus; test: Antiviral activity against wild type MERS-CoV infected in HEK293T/17 cells assessed as inhibition of viral replication by immunoblotting assay; type: functional, organism-based
SARS-CoV [3] = test: Antiviral activity against SARS-CoV infected in HeLa cells expressing human TMPRSS2 assessed as inhibition of viral replication at 100 uM measured after 20 hrs by fluorescence microscopy; type: functional; details: Severe acute respiratory syndrome-related coronavirus
SARS-CoV [4] = test: Antiviral activity against SARS-CoV infected in HeLa cells expressing human TMPRSS2 assessed as inhibition of viral replication at 10 uM measured after 20 hrs in presence of EST by fluorescence microscopy; type: functional; details: Severe acute respiratory syndrome-related coronavirus
SARS-CoV [5] = test: Antiviral activity against SARS-CoV infected in HeLa cells expressing human TMPRSS2 assessed as inhibition of viral replication measured after 20 hrs by fluorescence microscopy; type: functional, organism-based; details: Severe acute respiratory syndrome-related coronavirus
SARS-CoV [6] = type: functional, organism-based; details: Severe acute respiratory syndrome-related coronavirus, BJ01, Vero C1008, 64 h
[7] = Selectivity index. ratio of CC50 for cytotoxicity against African green monkey Vero E6 cells to EC50 for antiviral activity against wild type SARS-CoV BJ01 infected in Vero E6 cells; type: toxicity, cell-based, Vero C1008; details: read-out: Ratio CC50/EC50
[8] = Cytotoxicity against African green monkey Vero E6 cells by CCK-8 assay; type: toxicity, cell-based, Vero C1008; details: chlorocebus sabaeus
[9] = Cytotoxicity against human HEK293T cells by XTT assay; type: toxicity, cell-based, HEK-293T
SARS-CoV-2 [10] = type: functional, organism-based; details: Severe acute respiratory syndrome coronavirus 2, Vero C1008, 48 h
[11] = target: Replicase polyprotein 1ab (Severe acute respiratory syndrome coronavirus 2) (UniProt P0DTD1); test: Inhibition of recombinant SARS-COV2 main protease using Mca-AVLQ-SGFR-Lys-NH2 as substrate at 1 uM by FRET based cleavage assay
[12] = target: Replicase polyprotein 1ab (Severe acute respiratory syndrome coronavirus 2, UniProt P0DTD1); test: Inhibition of SARS-COV2 main protease using Mca-AVLQ-SGFR-K as substrate by Fluorescence microplate reader assay
SARS-CoV [13] = type: functional, organism-based; details: Severe acute respiratory syndrome-related coronavirus, HEK-293T, 48 h
Procathepsin L [14] = target: T1, Procathepsin L (Homo sapiens, UniProt P07711); test: Inhibition of recombinant Cathepsin L (unknown origin) using Z-Phe-Arg-AMC as substrate by fluorometric assay
T1 sequence (P07711 whole entry, the tested form may be a part): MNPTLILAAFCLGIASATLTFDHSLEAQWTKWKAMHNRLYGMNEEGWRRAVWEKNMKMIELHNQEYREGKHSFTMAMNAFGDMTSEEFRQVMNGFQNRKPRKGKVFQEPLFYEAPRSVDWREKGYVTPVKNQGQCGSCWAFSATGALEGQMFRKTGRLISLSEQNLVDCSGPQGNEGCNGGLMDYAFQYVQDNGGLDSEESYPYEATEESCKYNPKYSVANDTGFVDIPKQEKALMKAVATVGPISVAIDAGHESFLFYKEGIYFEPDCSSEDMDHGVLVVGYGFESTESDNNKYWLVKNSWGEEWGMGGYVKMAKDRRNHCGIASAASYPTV

[15] = target: Disintegrin and metalloproteinase domain-containing protein 17 (Mus musculus, UniProt Q9Z0F8); test: Inhibition of mouse ADAM17 expressed in HEK293 cells overexpressed with ACE2 assessed as inhibition of ACE2 shedding incubated for 65 mins in presence of PMA by immunoblotting assay; type: cell-based
Disintegrin and metalloproteinase domain-containing protein 17, sequence (Q9Z0F8 whole entry, the tested form may be a part): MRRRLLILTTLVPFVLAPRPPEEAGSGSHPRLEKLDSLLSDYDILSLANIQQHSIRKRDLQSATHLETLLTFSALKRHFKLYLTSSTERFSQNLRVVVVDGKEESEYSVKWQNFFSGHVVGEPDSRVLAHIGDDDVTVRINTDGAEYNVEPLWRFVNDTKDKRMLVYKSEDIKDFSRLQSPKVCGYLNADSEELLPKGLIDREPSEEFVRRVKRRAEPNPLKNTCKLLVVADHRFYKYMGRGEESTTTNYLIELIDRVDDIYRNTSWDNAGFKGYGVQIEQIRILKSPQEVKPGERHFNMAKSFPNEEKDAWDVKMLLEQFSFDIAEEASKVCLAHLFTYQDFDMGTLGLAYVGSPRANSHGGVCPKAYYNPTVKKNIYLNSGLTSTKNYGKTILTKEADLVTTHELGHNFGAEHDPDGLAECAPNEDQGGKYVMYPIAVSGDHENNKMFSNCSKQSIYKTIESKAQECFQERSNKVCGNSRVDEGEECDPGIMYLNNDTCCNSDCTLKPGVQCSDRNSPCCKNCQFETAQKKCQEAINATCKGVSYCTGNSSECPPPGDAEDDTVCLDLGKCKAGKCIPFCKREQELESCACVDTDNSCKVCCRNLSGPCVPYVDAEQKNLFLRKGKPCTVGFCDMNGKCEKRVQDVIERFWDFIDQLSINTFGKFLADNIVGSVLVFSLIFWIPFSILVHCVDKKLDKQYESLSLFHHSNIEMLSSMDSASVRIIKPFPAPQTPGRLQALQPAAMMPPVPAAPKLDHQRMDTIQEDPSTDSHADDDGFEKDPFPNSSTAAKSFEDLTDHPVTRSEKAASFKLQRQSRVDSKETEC

Zika virus = test: Antiviral activity against Zika virus MR766 infected in Vero cells assessed as reduction in viral replication by plaque reduction assay; type: functional, organism-based
Ebolavirus [16] = type: functional, organism-based; details: Orthoebolavirus, Vero C1008, 120 h
Ebolavirus [17] = test: Antiviral activity against Ebolavirus infected in HEK293T cells assessed as reduction in viral replication incubated for 7 hrs by luciferase assay; type: functional, organism-based; details: Orthoebolavirus, HEK-293T
SARS-CoV [18] = test: Antiviral activity against SARS-CoV infected in HEK293T cells assessed as reduction in viral replication incubated for 7 hrs by luciferase assay; type: functional, organism-based; details: Severe acute respiratory syndrome-related coronavirus, HEK-293T
Procathepsin L [19] = target: T1, Procathepsin L; test: Inhibition of human liver Cathepsin L using Z-Phe-Arg-AMC as substrate incubated for 30 mins by fluorometric assay
SARS-CoV [20] = type: functional, organism-based; details: Severe acute respiratory syndrome-related coronavirus, Vero C1008, 48 h
SARS-CoV-2 [21] = type: functional, organism-based; details: Severe acute respiratory syndrome coronavirus 2, Vero C1008, 96 h
SARS-CoV-2 [22] = type: functional, organism-based; details: Severe acute respiratory syndrome coronavirus 2, Vero C1008, 48 h; remark: listed apart in the source
[23] = Antiviral activity against Human coronavirus NL63 infected in HEK293T cells expressing human ACE2 assessed as inhibition of viral replication incubated for 2 days by Dual-Glo luciferase assay; type: functional, cell-based; details: Human coronavirus NL63, HEK-293T, 48 h
[24] = tested on: Middle East respiratory syndrome-related coronavirus; test: Antiviral activity against recombinant MERS-CoV pseudovirus infected in Vero cells assessed as inhibition of viral replication incubated for 2 days by Dual-Glo luciferase assay; type: functional, organism-based; details: 48 h
[25] = Cytotoxicity against human HEK293T cells; type: toxicity, cell-based, HEK-293T
[26] = Cytotoxicity against human Huh-7 cells incubated for 3 days by XTT assay; type: toxicity, cell-based; details: time 3 day
SARS-CoV [27] = type: functional, organism-based; details: Severe acute respiratory syndrome-related coronavirus, Vero C1008
[28] = Selectivity index. ratio of CC50 for cytotoxicity against human Huh-7 cells to IC50 for antiviral activity against MERS-CoV pseudovirus infected in Huh-7; type: toxicity, cell-based; details: read-out: Ratio CC50/IC50
[29] = tested on: Middle East respiratory syndrome-related coronavirus; test: Antiviral activity against recombinant MERS-CoV pseudovirus infected in Huh-7 cells assessed as inhibition of viral replication measured after 72 hrs by luminometer; type: functional, organism-based; details: Huh-7, 72 h
SARS-CoV [30] = test: Antiviral activity against SARS-CoV infected in HEK293 cells expressing human ACE2 assessed as inhibition of viral replication measured after 40 hrs by luciferase assay; type: functional, organism-based; details: Severe acute respiratory syndrome-related coronavirus, HEK293, 40 h
SARS-CoV-2 [31] = type: functional; details: Severe acute respiratory syndrome coronavirus 2, Vero C1008; time 18 hrs; read-out: ED50 (the source's name)

## O=c1c(O)c(-c2ccc(O)c(O)c2)oc2cc(O)cc(O)c12 [QUERCETIN]
[1]
  CC50: 3.32 µM

## CCCCCCCCCC(=O)N[C@@H](CCCNC(=N)N)C(=O)N[C@H](C(=O)N[C@@H](CCCCN)C(=O)N[C@@H](CCCNC(=N)N)C(=O)CCl)C(C)C (Decanoyl-RVKR-CH2Cl)
[2]
  IC50: 75 µM

## CN(C)C(=O)COC(=O)Cc1ccc(OC(=O)c2ccc(NC(=N)N)cc2)cc1 [CAMOSTAT]
SARS-CoV [3]
  inhibition at 100 µM: 65%
SARS-CoV [4]
  inhibition at 10 µM: > 95%
SARS-CoV [5]
  IC50: 10 µM

## O=C(OC[C@H]1O[C@@H](OC(=O)c2cc(O)c(O)c(O)c2)[C@H](OC(=O)c2cc(O)c(O)c(O)c2)[C@H](OC(=O)c2cc(O)c(O)c(O)c2)[C@@H]1O)c1cc(O)c(O)c(O)c1
SARS-CoV [6]
  EC50: 4.5 µM
[1]
  CC50: 1.08 µM
[7]
  selectivity ratio: 240

## NC(=O)c1ncn([C@@H]2O[C@H](CO)[C@@H](O)[C@H]2O)n1 [RIBAVIRIN]
[8]
  CC50: > 400 µM

## CN1CCN(c2ccc(CNC(=O)c3ccno3)cc2)CC1
[9]
  CC50: > 100 µM

## Cc1cccc(C)c1OCC(=O)N[C@@H](Cc1ccccc1)[C@@H](O)C[C@H](Cc1ccccc1)NC(=O)[C@H](C(C)C)N1CCCNC1=O [LOPINAVIR]
SARS-CoV-2 [10]
  EC50: 26.1 µM

## O=C[C@H](C[C@@H]1CCNC1=O)NC(=O)[C@H](CC1CCCCC1)NC(=O)c1cc2ccccc2[nH]1
[8]
  CC50: > 100 µM
[11]
  inhibition: 100%

## Cn1sc(=O)n(Cc2ccccc2)c1=O
[12]
  IC50: 2.5 µM

## C/C(=N\NC(N)=S)c1cccs1
SARS-CoV [13]
  EC50: 6.4 µM
Procathepsin L [14]
  IC50: 5.33 µM
[9]
  CC50: < 100 µM

## CC(C)C[C@H](CC(=O)NO)C(=O)N[C@@H](Cc1ccc2ccccc2c1)C(=O)N[C@@H](C)C(N)=O
[15]
  IC50: 0.1 µM

## NC(=O)c1nc(F)cnc1O
Zika virus
  EC50: 3.5 µg/mL (≈ 22.3 µM)
[8]
  CC50: > 400 µM
Ebolavirus [16]
  EC50: 10.5 µg/mL (≈ 66.8 µM)

## CC(C)(C)OC(=O)N[C@@H](Cc1c[nH]c2ccccc12)C(=O)NNC(=O)OCC(=O)N1CCCc2ccccc21
Ebolavirus [17]
  IC50: 193 µM
SARS-CoV [18]
  IC50: 273 µM
Procathepsin L [19]
  IC50: 6.9 µM

## CCC(CC)COC(=O)[C@H](C)N[P@](=O)(OC[C@H]1O[C@@](C#N)(c2ccc3c(N)ncnn23)[C@H](O)[C@@H]1O)Oc1ccccc1
SARS-CoV [20]
  EC50: 0.069 µM

## Nc1nc2c(ncn2CCC(CO)CO)c(=O)[nH]1 [PENCICLOVIR]
[8]
  CC50: > 400 µM
SARS-CoV [20]
  EC50: 96 µM

## O=C[C@H](C[C@@H]1CCNC1=O)NC(=O)[C@H](Cc1cccc(F)c1)NC(=O)c1cc2ccccc2[nH]1
[8]
  CC50: > 100 µM
[11]
  inhibition: 86%

## Cc1cc(C(=O)N[C@@H](C)C(=O)N[C@H](C(=O)N[C@@H](CC(C)C)C(=O)N[C@H](/C=C\C(=O)OCc2ccccc2)C[C@@H]2CCNC2=O)C(C)C)no1
SARS-CoV-2 [21]
  EC50: 16.8 µM

## CCN(CCO)CCCC(C)Nc1ccnc2cc(Cl)ccc12 (stereo unspecified) [HYDROXYCHLOROQUINE]
SARS-CoV-2 [22]
  EC50: 0.72 µM

## CN1CCN(C(=O)N[C@@H](Cc2ccccc2)C(=O)N[C@H](/C=C/S(=O)(=O)c2ccccc2)CCc2ccccc2)CC1 [K-777]
[23]
  IC50: < 0.007 µM
[24]
  IC50: 0.046 µM
[25]
  CC50: > 10 µM

## COc1ccc(S(=O)(=O)O)cc1/N=N/c1c(S(=O)(=O)O)cc2cc(Nc3nc(Nc4ccccc4)nc(Nc4cc(C)c(/N=N/c5cc(S(=O)(=O)O)cc6cc(S(=O)(=O)O)cc(O)c56)cc4OC)n3)ccc2c1O
[26]
  CC50 at 72 h: 26.9 µM
SARS-CoV [27]
  IC50: 3.89 µM
[28]
  selectivity ratio: 45
[29]
  IC50: 0.6 µM

## CC(C)[C@H](NC(=O)OCc1ccccc1)C(=O)NC(C=O)Cc1ccccc1 (stereo partly drawn) (Cbz-Val-[ξF]-aldehyde)
SARS-CoV [30]
  EC50: 0.1 µM

## CCN(CC)CCCC(C)Nc1ccnc2cc(Cl)ccc12 (stereo unspecified) [CHLOROQUINE]
[8]
  CC50: > 100 µM
SARS-CoV-2 [31]
  EC50: 4.4 µM
SARS-CoV-2 [10]
  EC50: 1.13 µM

## CC(C)CC(CC(=O)NO)C(=O)N[C@H](C(=O)N[C@@H](C)C(=O)NCCN)C(C)(C)C (stereo partly specified)
[15]
  IC50: 0.2 µM

## O=c1cc(-c2ccc(O)c(O)c2)oc2cc(O)cc(O)c12 [LUTEOLIN]
SARS-CoV [6]
  EC50: 10.6 µM
[1]
  CC50: 0.155 µM
[7]
  selectivity ratio: 14.6
